Data published in patent publication US10323022B2, “Pyrrolidinyl urea, pyrrolidinyl thiourea and pyrrolidinyl guanidine compounds as TrkA kinase inhibitors” (Array BioPharma Inc., priority 2011, dated 2019).

Biological target: TrkA (Homo sapiens (Human), UniProt P04629)
Assay: TrkA Omnia Assay
Type: biochemical
Settings: averaged IC50; 20 nM enzyme, 500 μM ATP, 10 μM peptide substrate
Experimental: Trk enzymatic selectivity was assessed using Omnia™ Kinase Assay reagents from Invitrogen Corp. Enzyme (TrkA from Invitrogen Corp.) and test compound (various concentrations) were incubated for 10 minutes at ambient temperature in a 384-well white polypropylene plate (Nunc catalog#267462). Omnia Tyr Peptide #4, as well as ATP, were then added to the plate. Final concentrations were as follows: 20 nM enzyme, 500 μM of ATP, 10 μM peptide substrate. The assay buffer consisted of 25 mM MOPS pH 7.5, 0.005% (v/v) Triton X-100 and 5 mM MgCl2. The production of phosphorylated peptide was monitored continuously for 70 minutes using a Molecular Devices FlexStation II^384 microplate reader (excitation=360 nm; emission=485 nm). Initial rates were calculated from the progress curves. IC50 values were calculated from these rates using either a 4 or 5-parameter logistic curve fit.

Chain of TrkA (P04629 33-796): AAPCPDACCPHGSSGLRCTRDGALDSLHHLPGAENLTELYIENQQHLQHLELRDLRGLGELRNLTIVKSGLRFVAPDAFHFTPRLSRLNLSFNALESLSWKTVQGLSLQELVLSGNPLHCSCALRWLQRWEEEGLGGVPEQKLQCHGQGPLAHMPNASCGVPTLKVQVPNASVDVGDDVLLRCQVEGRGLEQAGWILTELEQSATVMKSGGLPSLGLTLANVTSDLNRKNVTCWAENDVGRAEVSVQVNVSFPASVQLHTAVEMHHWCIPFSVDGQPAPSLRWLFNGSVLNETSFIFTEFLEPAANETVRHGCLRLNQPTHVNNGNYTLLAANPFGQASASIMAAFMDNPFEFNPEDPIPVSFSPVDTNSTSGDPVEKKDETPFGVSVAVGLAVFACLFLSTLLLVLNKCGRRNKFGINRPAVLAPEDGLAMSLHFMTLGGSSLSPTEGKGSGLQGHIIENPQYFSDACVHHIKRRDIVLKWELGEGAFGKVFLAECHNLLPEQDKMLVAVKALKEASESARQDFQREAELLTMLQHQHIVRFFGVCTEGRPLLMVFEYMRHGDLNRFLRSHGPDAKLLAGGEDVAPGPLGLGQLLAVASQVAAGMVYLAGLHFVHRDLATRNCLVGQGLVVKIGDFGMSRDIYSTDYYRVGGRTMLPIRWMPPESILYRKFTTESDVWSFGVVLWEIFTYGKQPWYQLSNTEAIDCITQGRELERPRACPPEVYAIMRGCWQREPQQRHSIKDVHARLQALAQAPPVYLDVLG

**Q.** How did the IC50 turn out when `COCCN1C[C@@H](NC(=O)Nc2c(-c3ccccc3)cnn2C)[C@H](c2ccccc2)C1` (relative stereo) [Example 31, 1-(trans-1-(2-methoxyethyl)-4-phenylpyrrolidin-3-yl)-3-(1-methyl-4-phenyl-1H-pyrazol-5-yl)urea] was run?
**A.** 100 to 1000 nM

**Q.** `COCCN1C[C@@H](NC(=O)Nc2c(C#N)c(C)nn2-c2ccccc2)[C@H](c2ccccc2)C1` (relative stereo) [Example 32, 1-(4-cyano-3-methyl-1-phenyl-1H-pyrazol-5-yl)-3-(trans-1-(2-methoxy-ethyl)-4-phenylpyrrolidin-3-yl)urea] was tested. Which IC50 did it give?
**A.** 100 to 1000 nM

**Q.** `COCCN1C[C@@H](NC(=O)Nc2c3c(nn2-c2cnn(C)c2)CCC3)[C@H](c2ccccc2)C1` (relative stereo) [Example 33, 1-(trans-1-(2-methoxyethyl)-4-phenylpyrrolidin-3-yl)-3-(2-(1-methyl-1H-pyrazol-4-yl)-2,4,5,6-tetrahydrocyclo-penta[c]pyrazol-3-yl)urea] was tested. Which IC50 did it give?
**A.** 100 to 1000 nM

**Q.** With `COCCN1C[C@@H](NC(=O)Nc2c3c(nn2-c2ccccn2)CCC3)[C@H](c2ccccc2)C1` (relative stereo) [Example 35, 1-(trans-1-(2-methoxyethyl)-4-phenylpyrrolidin-3-yl)-3-(2-(pyridin-2-yl)-2,4,5,6-tetrahydrocyclopenta[c]pyrazol-3-yl)urea] as the molecule, how does the IC50 read?
**A.** 1000 to 10000 nM

**Q.** Which IC50 does the source give for `COCCN1C[C@@H](NC(=O)Nc2c3c(nn2-c2ccccc2)C(C)(C)CCC3)[C@H](c2ccccc2)C1` (relative stereo) [Example 37, 1-(7,7-dimethyl-2-phenyl-4,5,6,7-tetrahydro-2H-indazol-3-yl)-3-(trans-1-(2-methoxyethyl)-4-phenylpyrrolidin-3-yl)urea] here?
**A.** < 100 nM

**Q.** `COCCN1C[C@@H](NC(=O)Nc2c3c(nn2-c2ccccc2)CCC3)[C@H](c2ccncc2)C1` (relative stereo) [Example 38, 1-(trans-1-(2-methoxyethyl)-4-(pyridin-4-yl)pyrrolidin-3-yl)-3-(2-phenyl-2,4,5,6-tetrahydrocyclopenta[c]pyrazol-3-yl)urea] was tested. Which IC50 did it give?
**A.** < 100 nM

**Q.** With `COCCN1C[C@@H](NC(=O)Nc2c3c(nn2-c2ccccc2)CCC3)[C@H](c2cccc(F)c2)C1` (relative stereo) [Example 39, trans-1-(4-(3-fluorophenyl)-1-(2-methoxyethyl)pyrrolidin-3-yl)-3-(2-phenyl-2,4,5,6-tetrahydrocyclopenta[c]pyrazol-3-yl)urea] as the molecule, how does the IC50 read?
**A.** < 100 nM

**Q.** How did the IC50 turn out when `COCCN1C[C@@H](NC(=O)Nc2cc(C(C)C)nn2-c2ccccc2)[C@H](c2cccc(F)c2)C1` (relative stereo) [Example 40, trans-1-(-4-(3-fluorophenyl)-1-(2-methoxyethyl)pyrrolidin-3-yl)-3-(3-isopropyl-1-phenyl-1H-pyrazol-5-yl)urea] was run?
**A.** < 100 nM

**Q.** For `COCCN1C[C@@H](NC(=O)Nc2cc(C(C)C)nn2-c2ccccc2)[C@H](c2ccc(F)cc2)C1` (relative stereo) [Example 41, trans-1-(4-(4-fluorophenyl)-1-(2-methoxyethyl)pyrrolidin-3-yl)-3-(3-isopropyl-1-phenyl-1H-pyrazol-5-yl)urea], which IC50 is on record?
**A.** < 100 nM

**Q.** For `COCCN1C[C@@H](NC(=O)Nc2cc(C(C)C)nn2-c2ccccc2)[C@H](c2cccc(Cl)c2)C1` (relative stereo) [Example 42, trans-1-(4-(3-chlorophenyl)-1-(2-methoxyethyl)pyrrolidin-3-yl)-3-(3-isopropyl-1-phenyl-1H-pyrazol-5-yl)urea], which IC50 is on record?
**A.** < 100 nM

**Q.** With `COCCN1C[C@@H](NC(=O)Nc2cc(C(C)C)nn2-c2ccccc2)[C@H](c2ccccc2F)C1` (relative stereo) [Example 43, trans-1-(4-(2-fluorophenyl)-1-(2-methoxyethyl)pyrrolidin-3-yl)-3-(3-isopropyl-1-phenyl-1H-pyrazol-5-yl)urea] as the molecule, how does the IC50 read?
**A.** 100 to 1000 nM

**Q.** `COCCN1C[C@@H](NC(=O)Nc2cc(C(C)C)nn2-c2ccccc2)[C@H](c2cccs2)C1` (relative stereo) [Example 44, trans-1-(3-isopropyl-1-phenyl-1H-pyrazol-5-yl)-3-(1-(2-methoxyethyl)-4-(thiophen-2-yl)pyrrolidin-3-yl)urea] was tested. Which IC50 did it give?
**A.** < 100 nM

**Q.** Which IC50 does the source give for `COCCN1C[C@@H](NC(=O)Nc2c3c(nn2-c2ccccc2)CCC3)[C@H](c2cnco2)C1` (relative stereo) [Example 46, 1-(trans-1-(2-methoxyethyl)-4-(oxazol-5-yl)pyrrolidin-3-yl)-3-(2-phenyl-2,4,5,6-tetrahydrocyclopenta[c]pyrazol-3-yl)urea] here?
**A.** 1000 to 10000 nM

**Q.** Which IC50 does the source give for `COCCN1C[C@@H](NC(=O)Nc2c3c(nn2-c2ccccc2)CCC3)[C@H](c2ccno2)C1` (relative stereo) [Example 47, 1-(trans-4-(isoxazol-5-yl)-1-(2-methoxyethyl)pyrrolidin-3-yl)-3-(2-phenyl-2,4,5,6-tetrahydrocyclopenta[c]pyrazol-3-yl)urea] here?
**A.** 100 to 1000 nM

**Q.** Which IC50 does the source give for `O=C(Nc1c2c(nn1-c1ccccc1)CCC2)N[C@@H]1CN(CCOC(F)(F)F)C[C@H]1c1ccccc1` (relative stereo) [Example 182, 1-(trans-4-phenyl-1-(2-(trifluoromethoxy)ethyl)pyrrolidin-3-yl)-3-(2-phenyl-2,4,5,6-tetrahydrocyclopenta[c]pyrazol-3-yl)urea] here?
**A.** < 100 nM

**Q.** For `CSCCN1C[C@@H](NC(=O)Nc2c3c(nn2-c2ccccc2)CCC3)[C@H](c2ccccc2)C1` (relative stereo) [Example 183, 1-(trans-1-(2-(methylthio)ethyl)-4-phenylpyrrolidin-3-yl)-3-(2-phenyl-2,4,5,6-tetrahydrocyclopenta[c]pyrazol-3-yl)urea], which IC50 is on record?
**A.** 100 to 1000 nM

**Q.** With `CCN1C[C@@H](NC(=O)Nc2c3c(nn2-c2ccccc2)CCC3)[C@H](c2ccccc2)C1` (relative stereo) [Example 193, 1-((trans)-1-ethyl-4-phenylpyrrolidin-3-yl)-3-(2-phenyl-2,4,5,6-tetrahydrocyclopenta[c]pyrazol-3-yl)urea] as the molecule, how does the IC50 read?
**A.** 100 to 1000 nM

**Q.** For `O=C(Nc1c2c(nn1-c1ccccc1)CCC2)N[C@@H]1CN(CC(F)(F)F)C[C@H]1c1ccccc1` (relative stereo) [Example 194, 1-((trans)-4-phenyl-1-(2,2,2-trifluoroethyl)pyrrolidin-3-yl)-3-(2-phenyl-2,4,5,6-tetrahydrocyclopenta[c]pyrazol-3-yl)urea], which IC50 is on record?
**A.** < 100 nM

**Q.** With `Cc1nn(-c2ccccc2)c(NC(=O)N[C@@H]2CN(CC(F)(F)F)C[C@H]2c2ccccc2)c1C` (relative stereo) [Example 195, 1-(3,4-dimethyl-1-phenyl-1H-pyrazol-5-yl)-3-((trans)-4-phenyl-1-(2,2,2-trifluoroethyl)pyrrolidin-3-yl)urea] as the molecule, how does the IC50 read?
**A.** < 100 nM

**Q.** For `COCCOc1nn(-c2ccccc2)c(NC(=O)N[C@@H]2CN(CC(F)(F)F)C[C@H]2c2ccccc2)c1C` (relative stereo) [Example 196, 1-(3-(2-methoxyethoxy)-4-methyl-1-phenyl-1H-pyrazol-5-yl)-3-((trans)-4-phenyl-1-(2,2,2-trifluoroethyl)pyrrolidin-3-yl)urea], which IC50 is on record?
**A.** < 100 nM

**Q.** How did the IC50 turn out when `O=C(Nc1c2c(nn1-c1ccccc1)CCC2)N[C@@H]1CN(C(CF)CF)C[C@H]1c1ccccc1` (relative stereo) [Example 206, 1-((trans)-1-(1,3-difluoropropan-2-yl)-4-phenylpyrrolidin-3-yl)-3-(2-phenyl-2,4,5,6-tetrahydrocyclopenta[c]pyrazol-3-yl)urea] was run?
**A.** 100 to 1000 nM

**Q.** Which IC50 does the source give for `COc1cccc([C@@H]2CN(CC(F)(F)F)C[C@H]2NC(=O)Nc2c3c(nn2-c2ccccc2)CCC3)c1` (relative stereo) [Example 207, 1-((trans)-4-(3-methoxyphenyl)-1-(2,2,2-trifluoroethyl)pyrrolidin-3-yl)-3-(2-phenyl-2,4,5,6-tetrahydrocyclopenta[c]pyrazol-3-yl)urea] here?
**A.** 100 to 1000 nM

**Q.** How did the IC50 turn out when `O=C(Nc1c2c(nn1-c1ccccc1)CCC2)N[C@@H]1CN(CC(F)(F)F)C[C@H]1c1cccc(Cl)c1` (relative stereo) [Example 208, 1-((trans)-4-(3-chlorophenyl)-1-(2,2,2-trifluoroethyl)pyrrolidin-3-yl)-3-(2-phenyl-2,4,5,6-tetrahydrocyclopenta[c]pyrazol-3-yl)urea] was run?
**A.** 100 to 1000 nM

**Q.** For `O=C(Nc1c2c(nn1-c1ccccc1)CCC2)N[C@@H]1CN(CC(F)(F)F)C[C@H]1c1ccccn1` (relative stereo) [Example 209, 1-(2-phenyl-2,4,5,6-tetrahydrocyclopenta[c]pyrazol-3-yl)-3-((trans)-4-(pyridin-2-yl)-1-(2,2,2-trifluoroethyl)pyrrolidin-3-yl)urea], which IC50 is on record?
**A.** 100 to 1000 nM

**Q.** For `O=C(Nc1c2c(nn1-c1ccccc1)CCC2)N[C@@H]1CN(CC(F)(F)F)C[C@H]1c1ccc(F)cc1` (relative stereo) [Example 210, 1-((trans)-4-(4-fluorophenyl)-1-(2,2,2-trifluoroethyl)pyrrolidin-3-yl)-3-(2-phenyl-2,4,5,6-tetrahydrocyclopenta[c]pyrazol-3-yl)urea], which IC50 is on record?
**A.** < 100 nM

**Q.** With `O=C(Nc1c2c(nn1-c1ccccc1)CCC2)N[C@@H]1CN(CC(F)(F)F)C[C@H]1c1ccc(Cl)cc1` (relative stereo) [Example 211, 1-((trans)-4-(4-chlorophenyl)-1-(2,2,2-trifluoroethyl)pyrrolidin-3-yl)-3-(2-phenyl-2,4,5,6-tetrahydrocyclopenta[c]pyrazol-3-yl)urea] as the molecule, how does the IC50 read?
**A.** < 100 nM

**Q.** For `O=C(Nc1c2c(nn1-c1ccccc1)CCC2)N[C@@H]1CN(CC(F)(F)F)C[C@H]1c1ccccc1Cl` (relative stereo) [Example 212, 1-((trans)-4-(2-chlorophenyl)-1-(2,2,2-trifluoroethyl)pyrrolidin-3-yl)-3-(2-phenyl-2,4,5,6-tetrahydrocyclopenta[c]pyrazol-3-yl)urea], which IC50 is on record?
**A.** 1000 to 10000 nM
